Results on 16 compounds are retold here after patent publication US20240317735A1, “HYDROISOQUINOLINE OR HYDRONAPHTHYRIDINE COMPOUNDS FOR THE TREATMENT OF AUTOIMMUNE DISEASE” (Hoffmann-La Roche Inc., priority 2020, published 2024).

pIC50: −log10 of the molar value.

One series has as its target T1, human TLR8 (Homo sapiens, UniProt Q9NR97).
T1 construct: host or cells: HEK293 (HEK-Blue hTLR8)
T1 sequence (Q9NR97 27-1041): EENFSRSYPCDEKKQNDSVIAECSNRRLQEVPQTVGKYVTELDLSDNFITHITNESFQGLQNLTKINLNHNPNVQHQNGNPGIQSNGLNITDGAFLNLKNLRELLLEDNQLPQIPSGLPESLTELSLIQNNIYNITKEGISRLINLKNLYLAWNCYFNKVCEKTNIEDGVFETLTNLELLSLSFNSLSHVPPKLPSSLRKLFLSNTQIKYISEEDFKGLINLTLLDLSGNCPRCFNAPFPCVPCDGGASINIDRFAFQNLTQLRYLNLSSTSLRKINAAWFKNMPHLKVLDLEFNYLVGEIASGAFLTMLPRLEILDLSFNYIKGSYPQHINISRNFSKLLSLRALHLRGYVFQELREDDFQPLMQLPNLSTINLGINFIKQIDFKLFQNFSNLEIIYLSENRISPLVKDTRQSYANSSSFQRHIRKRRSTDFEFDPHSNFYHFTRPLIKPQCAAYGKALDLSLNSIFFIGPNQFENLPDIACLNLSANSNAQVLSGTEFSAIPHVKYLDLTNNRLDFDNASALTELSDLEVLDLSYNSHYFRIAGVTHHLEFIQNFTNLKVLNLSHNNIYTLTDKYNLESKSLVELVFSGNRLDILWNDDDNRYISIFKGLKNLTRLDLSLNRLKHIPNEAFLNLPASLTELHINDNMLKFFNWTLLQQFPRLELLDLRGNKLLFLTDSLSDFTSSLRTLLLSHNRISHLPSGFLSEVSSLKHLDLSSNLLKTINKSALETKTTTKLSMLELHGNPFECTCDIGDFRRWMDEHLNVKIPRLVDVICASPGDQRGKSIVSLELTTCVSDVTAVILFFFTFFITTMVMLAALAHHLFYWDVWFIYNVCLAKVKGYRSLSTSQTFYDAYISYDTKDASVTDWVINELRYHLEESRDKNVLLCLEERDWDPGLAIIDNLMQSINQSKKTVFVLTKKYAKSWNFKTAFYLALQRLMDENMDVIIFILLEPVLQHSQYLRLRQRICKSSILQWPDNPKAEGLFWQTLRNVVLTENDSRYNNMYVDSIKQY
Description: HEK293-Blue-hTLR-8 cells assay (SEAP reporter, R848 stimulation). It counts as cell-based. The settings on record: HEK293-Blue-hTLR8 cells, R848, 20 hrs; read-out: HEK/hTLR8 IC50. The procedure:
The following tests were carried out in order to determine the activity of the compounds of formula (I) and (Ia) in HEK293-Blue-hTLR-7/8/9 cells assay.
A stable HEK293-Blue-hTLR-8 cell line was purchased from InvivoGen (Cat. #: hkb-htlr8, San Diego, California, USA). These cells were originally designed for studying the stimulation of human TLR8 by monitoring the activation of NF-κB. A SEAP (secreted embryonic alkaline phosphatase) reporter gene was placed under the control of the IFN-β minimal promoter fused to five NF-κB and AP-1-binding sites. The SEAP was induced by activating NF-κB and AP-1 via stimulating HEK-Blue hTLR8 cells with TLR8 ligands. Therefore the reporter expression was declined by TLR8 antagonist under the stimulation of a ligand, such as R848, for incubation of 20 hrs. The cell culture supernatant SEAP reporter activity was determined using QUANTI-Blue™ kit (Cat. #: rep-qb1, Invivogen, San Diego, Ca, USA) at a wavelength of 640 nm, a detection medium that turns purple or blue in the presence of alkaline phosphatase.
HEK293-Blue-hTLR8 cells were incubated at a density of 250,000˜450,000 cells/mL in a volume of 170 μL in a 96-well plate in Dulbecco's Modified Eagle's medium (DMEM) containing 4.5 g/L glucose, […] penicillin, […], […] Normocin, 2 mM L-glutamine, 10% (v/v) heat-inactivated fetal bovine serum with addition of 20 μL test compound in a serial dilution in the presence of final DMSO at 1% and 10 μL of 60 uM R848 in above DMEM, perform incubation under 37° C. in a C02 incubator for 20 hrs. Then 20 μL of the supernatant from each well was incubated with 180 μL Quanti-blue substrate solution at 37° C. for 2 hrs and the absorbance was read at 620-655 nm using a spectrophotometer. The signaling pathway that TLR8 activation leads to downstream NF-κB activation has been widely accepted, and therefore similar reporter assay was modified for evaluating TLR8 antagonist.

A further series deals with T2, hERG channel (Homo sapiens, UniProt Q12809).
T2 construct: expressed in transfected cells; host or cells: CHO (CHOhERG)
Description: hERG channel inhibition assay (patch-clamp, CHOhERG cells). In kind it is cell-based. The settings on record: for pIC50 / IC20: CHOhERG cells, whole-cell patch-clamp; for IC20: human, CHO cells stably expressing hERG (CHOhERG); for hERG IC20/TLR7 IC50 / hERG IC20/TLR8 IC50 / hERG IC20/TLR9 IC50: safety ratio; for hERG IC20/TLR7 IC50: hERG IC20 over HEK/hTLR7 IC50; for hERG IC20/TLR8 IC50: hERG IC20 over HEK/hTLR8 IC50; for hERG IC20/TLR9 IC50: hERG IC20 over HEK/hTLR9 IC50. The method, then: The hERG K^+ channels were cloned in humans and stably expressed in a CHO (Chinese hamster ovary) cell line. CHOhERG cells were used for patch-clamp (voltage-clamp, whole-cell) experiments. Cells were stimulated by a voltage pattern to activate hERG channels and conduct IKhERG currents (rapid delayed outward rectifier potassium current of the hERG channel). After the cells were stabilized for a few minutes, the amplitude and kinetics of IKhERG were recorded at a stimulation frequency of 0.1 Hz (6 bpm). Thereafter, the test compound was added to the preparation at increasing concentrations. For each concentration, an attempt was made to reach a steady-state effect, usually, this was achieved within 3-10 min at which time the next highest concentration was applied. The amplitude and kinetics of IKhERG are recorded in each concentration of the drug which were compared to the control values (taken as 100%). (references: Redfern W S, Carlsson L, Davis A S, Lynch W G, MacKenzie I, Palethorpe S, Siegl P K, Strang I, Sullivan A T, Wallis R, Camm A J, Hammond T G. 2003; Relationships between preclinical cardiac electrophysiology, clinical QT interval prolongation and torsade de pointes for a broad range of drugs: evidence for a provisional safety margin in drug development. Cardiovasc. Res. 58:32-45, Sanguinetti MC, Tristani-Firouzi M. 2006; hERG potassium channels and cardiac arrhythmia. Nature 440:463-469, Webster R, Leishman D, Walker D. 2002; Towards a drug concentration effect relationship for QT prolongation and torsades de pointes. Curr. Opin. Drug Discov. Devel. 5:116-26).

T2 sequence (Q12809 whole entry): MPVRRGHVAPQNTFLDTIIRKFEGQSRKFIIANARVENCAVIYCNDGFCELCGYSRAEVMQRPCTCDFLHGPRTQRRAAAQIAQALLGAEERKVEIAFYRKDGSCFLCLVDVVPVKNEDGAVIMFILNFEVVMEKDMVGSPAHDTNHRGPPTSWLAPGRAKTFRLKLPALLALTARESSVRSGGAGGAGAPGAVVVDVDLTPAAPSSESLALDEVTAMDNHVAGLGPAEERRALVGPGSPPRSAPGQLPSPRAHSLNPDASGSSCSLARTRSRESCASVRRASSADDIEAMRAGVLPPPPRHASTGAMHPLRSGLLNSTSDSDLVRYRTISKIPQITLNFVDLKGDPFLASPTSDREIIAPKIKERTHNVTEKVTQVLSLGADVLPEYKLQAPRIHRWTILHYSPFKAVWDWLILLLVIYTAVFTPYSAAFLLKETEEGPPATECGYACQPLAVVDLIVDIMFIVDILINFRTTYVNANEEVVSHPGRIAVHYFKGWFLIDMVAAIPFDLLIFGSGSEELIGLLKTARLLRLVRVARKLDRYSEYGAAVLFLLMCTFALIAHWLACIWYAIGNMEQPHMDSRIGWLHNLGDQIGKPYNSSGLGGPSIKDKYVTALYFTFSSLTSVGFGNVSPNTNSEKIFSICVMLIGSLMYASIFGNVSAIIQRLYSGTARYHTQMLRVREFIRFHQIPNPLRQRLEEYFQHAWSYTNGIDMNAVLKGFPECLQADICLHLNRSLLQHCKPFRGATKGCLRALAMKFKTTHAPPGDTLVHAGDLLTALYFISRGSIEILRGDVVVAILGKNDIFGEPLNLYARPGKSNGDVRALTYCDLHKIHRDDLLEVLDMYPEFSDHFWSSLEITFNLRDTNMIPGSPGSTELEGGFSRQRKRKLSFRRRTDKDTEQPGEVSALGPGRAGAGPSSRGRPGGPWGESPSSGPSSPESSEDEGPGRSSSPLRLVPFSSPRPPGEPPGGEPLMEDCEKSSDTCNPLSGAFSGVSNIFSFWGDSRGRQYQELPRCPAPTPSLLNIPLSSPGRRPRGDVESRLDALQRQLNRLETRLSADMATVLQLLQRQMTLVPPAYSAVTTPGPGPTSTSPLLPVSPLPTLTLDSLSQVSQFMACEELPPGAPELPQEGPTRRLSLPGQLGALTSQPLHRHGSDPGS

A word on the IC20: it is the point of the concentration-response curve where the effect stands at 20%. Lower therefore signals an effect from little substance. On to `C[C@H]1CN(c2ccnc3c2cnn3C)Cc2ccc(N3C[C@@]4(CCNC4)CC3=O)cc21` (single isomer, unassigned) [Example 53], for which the pIC50 on human TLR8 is 8.22. Besides, on hERG channel, the pIC50 was below 4.70, the 20% effect concentration (IC20) was above 10000 nM, the “hERG IC20/TLR7 IC50” value is on record as above 555.6 and the “hERG IC20/TLR8 IC50” value is recorded as above 1666.7. The “hERG IC20/TLR9 IC50” value on hERG channel is reported as above 47.6.

As for `C[C@H]1CN(c2ccnc3c2cnn3C)Cc2ccc(N3CCNCC3)cc21` [Example 1, (4R)-4-methyl-2-(1-methylpyrazolo[3,4-b]pyridin-4-yl)-6-piperazin-1-yl-3,4-dihydro-1H-isoquinoline], at human TLR8, the pIC50 is 8.70. Moreover, on hERG channel, the pIC50 was below 4.70, it took 6400 nM to reach the 20% level (IC20), the “hERG IC20/TLR7 IC50” value is given as 2133.3 and the “hERG IC20/TLR8 IC50” value amounted to 3200.0. In addition, the “hERG IC20/TLR9 IC50” value on hERG channel came to 32.3. `CO[C@@H]1CN(c2ccc3c(n2)[C@@H](C)CN(c2cc(C)nc4c2cnn4C)C3)C[C@H]1N` [Example 63, (3R,4R)-4-methoxy-1-[(8S)-6-(1,6-dimethylpyrazolo[3,4-b]pyridin-4-yl)-8-methyl-7,8-dihydro-5H-1,6-naphthyridin-2-yl]pyrrolidin-3-amine]: the pIC50 on human TLR8 is 7.80. Same read-out and setting: as for `Cc1cc(N2Cc3ccc(OC4CCNCC4)nc3[C@@H](C)C2)c2cnn(C)c2n1` [Example 64, (8S)-6-(1,6-dimethylpyrazolo[3,4-b]pyridin-4-yl)-8-methyl-2-(4-piperidyloxy)-7,8-dihydro-5H-1,6-naphthyridine], the figure is 8.40; as for `CO[C@H]1CN(c2ccc3c(n2)[C@@H](C)CN(c2cc(C)nc4c2cnn4C)C3)CC[C@@H]1N` [Example 65, (3S,4S)-3-methoxy-1-[(8S)-6-(1,6-dimethylpyrazolo[3,4-b]pyridin-4-yl)-8-methyl-7,8-dihydro-5H-1,6-naphthyridin-2-yl]piperidin-4-amine], 9.00. On the same count and under the same terms, to `Cc1cc(N2Cc3ccc(N4CCNCC4)nc3[C@@H](C)C2)c2cnn(C)c2n1` [Example 66, (8S)-6-(1,6-dimethylpyrazolo[3,4-b]pyridin-4-yl)-8-methyl-2-piperazin-1-yl-7,8-dihydro-5H-1,6-naphthyridine] belongs 9.00; to `Cc1cc(N2Cc3ccc(N4CCN(C)CC4)nc3[C@@H](C)C2)c2cnn(C)c2n1` [Example 67, (8S)-6-(1,6-dimethylpyrazolo[3,4-b]pyridin-4-yl)-8-methyl-2-(4-methylpiperazin-1-yl)-7,8-dihydro-5H-1,6-naphthyridine], 9.00; to `Cc1cc(N2Cc3ccc(N4CC5(CNCCO5)C4)nc3[C@@H](C)C2)c2cnn(C)c2n1` [Example 68, 2-[(8S)-6-(1,6-dimethylpyrazolo[3,4-b]pyridin-4-yl)-8-methyl-7,8-dihydro-5H-1,6-naphthyridin-2-yl]-5-oxa-2,8-diazaspiro[3.5]nonane], 7.77. As for `Cc1cc(N2Cc3ccc(N4C[C@@H](F)[C@@H](N)C4)nc3[C@@H](C)C2)c2cnn(C)c2n1` [Example 69, (3S,4R)-4-fluoro-1-[(8S)-6-(1,6-dimethylpyrazolo[3,4-b]pyridin-4-yl)-8-methyl-7,8-dihydro-5H-1,6-naphthyridin-2-yl]pyrrolidin-3-amine], the pIC50 at human TLR8 is 8.05. For `Cc1cc(N2Cc3ccc(N4CCOC5(CNC5)C4)nc3[C@@H](C)C2)c2cnn(C)c2n1` [Example 70, 8-[(8S)-6-(1,6-dimethylpyrazolo[3,4-b]pyridin-4-yl)-8-methyl-7,8-dihydro-5H-1,6-naphthyridin-2-yl]-5-oxa-2,8-diazaspiro[3.5]nonane], the pIC50 on human TLR8 was 7.55. On the same count and under the same terms, to `Cc1cc(N2Cc3ccc(N4CCNCC4)nc3[C@H](C)C2)c2cnn(C)c2n1` [Example 72, (8R)-6-(1,6-dimethylpyrazolo[3,4-b]pyridin-4-yl)-8-methyl-2-piperazin-1-yl-7,8-dihydro-5H-1,6-naphthyridine] belongs 8.70; to `Cc1cc(N2Cc3cnc(N4CCNCC4)cc3[C@@H](C)C2)c2cnn(C)c2n1` [Example 74, (4R)-2-(1,6-dimethylpyrazolo[3,4-b]pyridin-4-yl)-4-methyl-6-piperazin-1-yl-3,4-dihydro-1H-2,7-naphthyridine], 8.70. The same measure, in the same setting: to `Cc1cc(N2Cc3cnc(N4CCNC5(CC5)C4)cc3[C@@H](C)C2)c2cnn(C)c2n1` [Example 75, (4R)-6-(4,7-diazaspiro[2.5]octan-7-yl)-2-(1,6-dimethylpyrazolo[3,4-b]pyridin-4-yl)-4-methyl-3,4-dihydro-1H-2,7-naphthyridine] belongs 7.89; to `CO[C@@H]1CN(c2cc3c(cn2)CN(c2cc(C)nc4c2cnn4C)C[C@@H]3C)C[C@H]1N` [Example 78, (3R,4R)-4-methoxy-1-[(5R)-7-(1,6-dimethylpyrazolo[3,4-b]pyridin-4-yl)-5-methyl-6,8-dihydro-5H-2,7-naphthyridin-3-yl]pyrrolidin-3-amine], 7.28.

As for `Cc1cc(N2Cc3cnc(N4CC5(CNCCO5)C4)cc3[C@@H](C)C2)c2cnn(C)c2n1` [Example 79, 2-[(5R)-7-(1,6-dimethylpyrazolo[3,4-b]pyridin-4-yl)-5-methyl-6,8-dihydro-5H-2,7-naphthyridin-3-yl]-5-oxa-2,8-diazaspiro[3.5]nonane], on human TLR8, the pIC50 is 7.64. On to `COC[C@H]1CN(c2cc3c(cn2)CN(c2cc(C)nc4c2cnn4C)C[C@@H]3C)CCN1` [Example 81, (4R)-2-(1,6-dimethylpyrazolo[3,4-b]pyridin-4-yl)-4-methyl-6-[(3R)-3-(methoxymethyl)piperazin-1-yl]-3,4-dihydro-1H-2,7-naphthyridine], for which, at human TLR8, the pIC50 was 8.10.
